Laboratory results: ChEMBL document CHEMBL3120093 (J Med Chem, 2014)

Key:
[1] = Drug uptake in rat liver at 5 mg/kg, po after 4 hrs; format: ADME, organism-based; parameters: dose 5 mg/kg, route oral; conditions: read-out: Drug uptake
[2] = Drug uptake in rat liver at 5 mg/kg, po after 24 hrs; format: ADME, organism-based; parameters: dose 5 mg/kg, route oral; conditions: read-out: Drug uptake
[3] = AUC in mouse at 20 mg/kg, po after 24 hrs; format: ADME, organism-based; parameters: time < 24 hr, dose 20 mg/kg, route oral; conditions: plasma
[4] = Oral bioavailability in dog at 3 mg/kg after 24 hrs; format: ADME, organism-based, Canis lupus familiaris; conditions: plasma
[5] = Plasma concentration in mouse at 20 mg/kg, po after 24 hrs; format: ADME, organism-based; parameters: dose 20 mg/kg, route oral
[6] = Drug uptake in mouse liver at 20 mg/kg, po after 24 hrs; format: ADME, organism-based; parameters: dose 20 mg/kg, route oral; conditions: read-out: Drug uptake
[7] = Permeability from apical to basolateral side of human Caco2 cells; format: ADME, cell-based; conditions: Caco-2, read-out: permeability
[8] = Half life in mouse at 5 mg/kg, iv after 24 hrs; format: ADME, organism-based; parameters: dose 5 mg/kg, route intravenous; conditions: in vivo
[9] = Plasma concentration in rat at 5 mg/kg, po after 4 hrs; format: ADME, organism-based; parameters: dose 5 mg/kg, route oral
[10] = Volume of distribution in rat at 2 mg/kg, iv after 24 hrs; format: ADME, organism-based; parameters: dose 2 mg/kg, route intravenous; conditions: in vivo
[11] = Ratio of drug level in liver to plasma in rat at 5 mg/kg, po after 24 hrs; format: ADME, organism-based; parameters: dose 5 mg/kg, route oral
[12] = Clearance in rat at 2 mg/kg, iv after 24 hrs; format: ADME, organism-based; parameters: dose 2 mg/kg, route intravenous; conditions: in vivo
[13] = Plasma concentration in dog at 3 mg/kg, po after 24 hrs; format: ADME, organism-based, Canis lupus familiaris; parameters: dose 3 mg/kg, route oral
[14] = Clearance in mouse at 5 mg/kg, iv after 24 hrs; format: ADME, organism-based; parameters: dose 5 mg/kg, route intravenous; conditions: in vivo
[15] = Volume of distribution in dog at 1 mg/kg, iv after 24 hrs; format: ADME, organism-based, Canis lupus familiaris; parameters: dose 1 mg/kg, route intravenous; conditions: in vivo
[16] = Half life in rat at 2 mg/kg, iv after 24 hrs; format: ADME, organism-based; parameters: dose 2 mg/kg, route intravenous; conditions: in vivo
[17] = AUC in rat at 5 mg/kg, po after 4 hrs; format: ADME, organism-based; parameters: time < 4 hr, dose 5 mg/kg, route oral; conditions: plasma
[18] = AUC in rat at 5 mg/kg, po after 24 hrs; format: ADME, organism-based; parameters: time < 24 hr, dose 5 mg/kg, route oral; conditions: plasma
[19] = Oral bioavailability in rat at 5 mg/kg after 24 hrs; format: ADME, organism-based; conditions: in vivo
[20] = Permeability of the compound at PH 7.4 by PAMPA; format: ADME; conditions: read-out: permeability
[21] = Permeability from basolateral to apical side of human Caco2 cells; format: ADME, cell-based; conditions: Caco-2, read-out: permeability
[22] = Clearance in dog at 1 mg/kg, iv after 24 hrs; format: ADME, organism-based, Canis lupus familiaris; parameters: dose 1 mg/kg, route intravenous; conditions: in vivo
[23] = Oral bioavailability in mouse at 20 mg/kg after 24 hrs; format: ADME, organism-based; conditions: plasma
[24] = AUC in dog at 3 mg/kg, po after 24 hrs; format: ADME, organism-based, Canis lupus familiaris; parameters: time < 24 hr, dose 3 mg/kg, route oral; conditions: plasma
[25] = Plasma concentration in rat at 5 mg/kg, po after 24 hrs; format: ADME, organism-based; parameters: dose 5 mg/kg, route oral
[26] = Half life in dog at 1 mg/kg, iv after 24 hrs; format: ADME, organism-based, Canis lupus familiaris; parameters: dose 1 mg/kg, route intravenous; conditions: in vivo
[27] = Volume of distribution in mouse at 5 mg/kg, iv after 24 hrs; format: ADME, organism-based; parameters: dose 5 mg/kg, route intravenous; conditions: in vivo
Liver microsome [28] = assay: Metabolic stability of the compound in human liver microsomes assessed as GSH adduct formation at 10 uM after 30 mins; conditions: 0.5 h
Liver microsome [29] = assay: Metabolic stability of the compound in human liver microsomes assessed as cyanide adduct formation at 10 uM after 30 mins; format: ADME; conditions: 0.5 h
Liver microsome [30] = assay: Metabolic stability of the compound in human liver microsomes assessed as GSH adduct formation at 10 uM after 30 mins; format: ADME; conditions: 0.5 h
[31] = Clearance in rat at 2 mg/kg, iv after 4 hrs; format: ADME, organism-based; parameters: dose 2 mg/kg, route intravenous; conditions: in vivo
Liver microsome [32] = assay: Metabolic stability of the compound in rat liver microsomes assessed as […] formation at 10 uM after 30 mins; format: ADME; conditions: 0.5 h

Compound	concentration at 4 h [1] [nM]	bioavailability [4] [%]	concentration at 4 h [9] [nM]	Vd [10] [L/kg]	clearance [12] [mL/min/kg]	concentration at 24 h [13] [nM]	Vd [15] [L/kg]	half-life [16] [h]	AUC at 4 h [17] [µM·h]	Papp [20] [×10⁻⁶ cm/s]	clearance [22] [mL/min/kg]	AUC at 24 h [24] [µM·h]	half-life [26] [h]	other results
COC(=O)N[C@@H](C(=O)N1CCC[C@H]1c1ncc(-c2ccc(-c3ccc(-c4cnc([C@@H]5CCCN5C(=O)[C@H]5CCCO5)[nH]4)cc3)cc2)[nH]1)c1ccccc1	2570	45	234	0.3	4.4	6	7.5	6.9	0.809	46.4	22	1.52	> 10	concentration at 24 h [2]: 116 nM; AUC at 24 h [3]: 15.1 µM·h; concentration at 24 h [5]: 59 nM; concentration at 24 h [6]: 253 nM; Papp A→B [7]: < 1.5 ×10⁻⁶ cm/s; half-life [8]: 2.9 h; Kp at 24 h [11]: 26; clearance [14]: 5.3 mL/min/kg; AUC at 24 h [18]: 1.83 µM·h; bioavailability [19]: 6.8%; Papp B→A [21]: 10.5 ×10⁻⁶ cm/s; bioavailability [23]: 17%; concentration at 24 h [25]: 4.5 nM; Vd [27]: 1.9 L/kg
O=C([C@@H](c1ccccc1)N1CCCCC1)N1CCC[C@H]1c1ncc(-c2ccc(-c3ccc(-c4cnc([C@@H]5CCCN5C(=O)[C@@H](c5ccccc5)N5CCCCC5)[nH]4)cc3)cc2)[nH]1	1200	14	13	20	63	8.3	10	7.7	0.047	25.1	28	0.272	> 12	Stability (Liver microsome [28]): Stable; Stability (Liver microsome [29]): Unstable; Stability (Liver microsome [30]): Stable; clearance [31]: 58 mL/min/kg; Stability (Liver microsome [32]): Unstable
